Results as given in ChEMBL document CHEMBL5705895, “Species comparison and pharmacological characterization of human, monkey, rat, and mouse TRPA1 channels” (J Pharmacol Exp Ther, 2012).
Active and inactive are the calls of the source. The rule behind the calls is not given here.

Assays:
Format in all cases: cell-based
[1] = target: T1, Transient receptor potential cation channel subfamily A member 1 (Homo sapiens, UniProt O75762); assay: Antagonist activity at full length human TRPA1 transfected in HEK293F cells assessed as blockade of MO-induced TRPA1 channel activation by measuring Ca2+ influx in presence of 30 uM MO by FLIPR calcium assay
T1 sequence (O75762 whole entry): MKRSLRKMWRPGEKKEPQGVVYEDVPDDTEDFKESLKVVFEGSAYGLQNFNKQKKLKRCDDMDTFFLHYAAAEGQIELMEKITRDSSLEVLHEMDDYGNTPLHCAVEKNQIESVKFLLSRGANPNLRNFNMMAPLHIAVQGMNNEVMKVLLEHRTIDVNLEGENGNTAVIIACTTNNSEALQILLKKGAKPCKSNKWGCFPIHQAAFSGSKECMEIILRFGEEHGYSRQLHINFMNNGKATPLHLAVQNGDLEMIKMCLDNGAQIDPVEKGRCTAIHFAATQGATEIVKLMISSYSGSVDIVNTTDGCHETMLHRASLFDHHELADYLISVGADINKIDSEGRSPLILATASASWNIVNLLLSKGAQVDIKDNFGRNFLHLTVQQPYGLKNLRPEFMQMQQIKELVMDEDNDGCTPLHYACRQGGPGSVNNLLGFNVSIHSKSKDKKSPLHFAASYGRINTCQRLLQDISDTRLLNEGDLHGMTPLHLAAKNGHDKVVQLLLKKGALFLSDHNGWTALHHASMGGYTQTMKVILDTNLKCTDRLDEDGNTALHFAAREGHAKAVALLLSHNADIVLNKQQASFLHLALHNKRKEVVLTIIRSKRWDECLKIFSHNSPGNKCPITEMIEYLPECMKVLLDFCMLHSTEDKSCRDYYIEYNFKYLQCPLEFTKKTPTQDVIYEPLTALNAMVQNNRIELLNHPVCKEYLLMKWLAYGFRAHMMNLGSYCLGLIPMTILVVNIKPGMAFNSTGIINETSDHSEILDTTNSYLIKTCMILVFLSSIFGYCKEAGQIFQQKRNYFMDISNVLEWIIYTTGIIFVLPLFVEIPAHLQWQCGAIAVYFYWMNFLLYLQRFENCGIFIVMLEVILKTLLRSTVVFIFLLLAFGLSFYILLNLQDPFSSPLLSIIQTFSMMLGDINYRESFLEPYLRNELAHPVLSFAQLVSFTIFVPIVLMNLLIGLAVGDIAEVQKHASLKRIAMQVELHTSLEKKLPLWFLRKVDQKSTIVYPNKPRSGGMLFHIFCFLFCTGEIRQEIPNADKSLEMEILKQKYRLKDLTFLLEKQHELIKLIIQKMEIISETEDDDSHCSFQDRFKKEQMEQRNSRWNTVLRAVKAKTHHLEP

[2] = target: T2, Transient receptor potential cation channel subfamily A member 1 (Macaca mulatta, UniProt A0A1D5QMT1); assay: Antagonist activity at full length rhesus monkey TRPA1 transfected in HEK293F cells assessed as blockade of MO-induced TRPA1 channel activation by measuring Ca2+ influx in presence of 120 uM MO by FLIPR calcium assay
T2 sequence (A0A1D5QMT1 whole entry): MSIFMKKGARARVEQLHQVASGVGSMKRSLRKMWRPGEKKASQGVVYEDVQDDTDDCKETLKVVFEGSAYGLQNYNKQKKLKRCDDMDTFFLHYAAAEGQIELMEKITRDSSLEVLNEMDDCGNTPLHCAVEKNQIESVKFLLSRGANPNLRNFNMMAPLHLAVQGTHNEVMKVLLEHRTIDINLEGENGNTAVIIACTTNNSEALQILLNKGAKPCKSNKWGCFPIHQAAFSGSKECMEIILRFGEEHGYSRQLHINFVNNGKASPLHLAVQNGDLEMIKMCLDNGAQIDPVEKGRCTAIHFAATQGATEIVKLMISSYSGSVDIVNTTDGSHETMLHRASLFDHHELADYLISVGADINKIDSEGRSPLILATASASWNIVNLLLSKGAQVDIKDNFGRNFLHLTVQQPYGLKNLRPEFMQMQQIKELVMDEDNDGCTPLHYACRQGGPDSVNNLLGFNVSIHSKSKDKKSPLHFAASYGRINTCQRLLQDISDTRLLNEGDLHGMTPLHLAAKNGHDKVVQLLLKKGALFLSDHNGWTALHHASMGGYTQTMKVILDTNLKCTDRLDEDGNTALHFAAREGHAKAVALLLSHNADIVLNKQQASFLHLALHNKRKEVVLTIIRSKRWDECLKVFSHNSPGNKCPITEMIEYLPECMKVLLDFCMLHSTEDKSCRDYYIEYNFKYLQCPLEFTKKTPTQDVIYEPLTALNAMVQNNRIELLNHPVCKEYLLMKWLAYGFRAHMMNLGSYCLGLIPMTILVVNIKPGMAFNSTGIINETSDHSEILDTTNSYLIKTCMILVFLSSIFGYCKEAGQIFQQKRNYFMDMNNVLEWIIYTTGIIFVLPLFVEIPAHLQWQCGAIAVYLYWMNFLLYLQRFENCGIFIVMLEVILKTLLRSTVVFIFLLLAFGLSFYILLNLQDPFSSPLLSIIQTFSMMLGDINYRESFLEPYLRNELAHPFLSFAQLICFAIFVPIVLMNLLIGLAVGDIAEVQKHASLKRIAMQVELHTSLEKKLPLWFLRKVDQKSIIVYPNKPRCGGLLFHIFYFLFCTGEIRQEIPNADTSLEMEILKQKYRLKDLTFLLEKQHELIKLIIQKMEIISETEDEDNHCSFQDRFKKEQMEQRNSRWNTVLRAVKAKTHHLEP

[3] = target: T3, Transient receptor potential cation channel subfamily A member 1 (Rattus norvegicus, UniProt Q6RI86); assay: Antagonist activity at full length rat TRPA1 transfected in HEK293F cells assessed as blockade of MO-induced TRPA1 channel activation by measuring Ca2+ influx in presence of 30 uM MO by FLIPR calcium assay
T3 sequence (Q6RI86 whole entry): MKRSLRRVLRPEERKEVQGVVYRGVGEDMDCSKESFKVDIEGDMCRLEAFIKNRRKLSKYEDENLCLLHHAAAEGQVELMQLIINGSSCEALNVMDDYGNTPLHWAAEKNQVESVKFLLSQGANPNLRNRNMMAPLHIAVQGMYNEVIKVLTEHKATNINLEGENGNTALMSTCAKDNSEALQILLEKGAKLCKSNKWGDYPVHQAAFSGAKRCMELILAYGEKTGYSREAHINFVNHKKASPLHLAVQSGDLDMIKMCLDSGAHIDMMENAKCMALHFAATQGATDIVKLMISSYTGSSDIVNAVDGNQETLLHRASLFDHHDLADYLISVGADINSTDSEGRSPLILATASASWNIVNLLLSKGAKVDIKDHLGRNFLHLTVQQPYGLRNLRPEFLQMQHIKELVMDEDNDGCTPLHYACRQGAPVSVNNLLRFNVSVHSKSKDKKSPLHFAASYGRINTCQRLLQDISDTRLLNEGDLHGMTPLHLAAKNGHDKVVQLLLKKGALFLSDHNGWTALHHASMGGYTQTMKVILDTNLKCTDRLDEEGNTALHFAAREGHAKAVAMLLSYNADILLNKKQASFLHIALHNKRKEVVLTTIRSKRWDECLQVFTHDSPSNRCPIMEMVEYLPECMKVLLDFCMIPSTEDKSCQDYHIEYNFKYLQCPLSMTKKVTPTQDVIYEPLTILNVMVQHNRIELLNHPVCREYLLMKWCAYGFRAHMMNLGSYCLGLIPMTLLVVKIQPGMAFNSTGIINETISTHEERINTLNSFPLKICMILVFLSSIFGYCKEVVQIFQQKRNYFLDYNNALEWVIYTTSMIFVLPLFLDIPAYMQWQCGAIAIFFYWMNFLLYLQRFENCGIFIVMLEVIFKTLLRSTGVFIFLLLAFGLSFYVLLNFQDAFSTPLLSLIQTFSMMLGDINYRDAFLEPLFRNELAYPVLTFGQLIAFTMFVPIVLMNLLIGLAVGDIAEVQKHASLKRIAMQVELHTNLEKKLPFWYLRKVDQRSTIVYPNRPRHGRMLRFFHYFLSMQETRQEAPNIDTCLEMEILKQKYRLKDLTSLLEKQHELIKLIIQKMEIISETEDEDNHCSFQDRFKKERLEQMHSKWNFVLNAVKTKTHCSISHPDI

[4] = target: T4, Transient receptor potential cation channel subfamily A member 1 (Mus musculus, UniProt Q8BLA8); assay: Antagonist activity at full length mouse TRPA1 transfected in HEK293F cells assessed as blockade of MO-induced TRPA1 channel activation by measuring Ca2+ influx in presence of 30 uM MO by FLIPR calcium assay
T4 sequence (Q8BLA8 whole entry): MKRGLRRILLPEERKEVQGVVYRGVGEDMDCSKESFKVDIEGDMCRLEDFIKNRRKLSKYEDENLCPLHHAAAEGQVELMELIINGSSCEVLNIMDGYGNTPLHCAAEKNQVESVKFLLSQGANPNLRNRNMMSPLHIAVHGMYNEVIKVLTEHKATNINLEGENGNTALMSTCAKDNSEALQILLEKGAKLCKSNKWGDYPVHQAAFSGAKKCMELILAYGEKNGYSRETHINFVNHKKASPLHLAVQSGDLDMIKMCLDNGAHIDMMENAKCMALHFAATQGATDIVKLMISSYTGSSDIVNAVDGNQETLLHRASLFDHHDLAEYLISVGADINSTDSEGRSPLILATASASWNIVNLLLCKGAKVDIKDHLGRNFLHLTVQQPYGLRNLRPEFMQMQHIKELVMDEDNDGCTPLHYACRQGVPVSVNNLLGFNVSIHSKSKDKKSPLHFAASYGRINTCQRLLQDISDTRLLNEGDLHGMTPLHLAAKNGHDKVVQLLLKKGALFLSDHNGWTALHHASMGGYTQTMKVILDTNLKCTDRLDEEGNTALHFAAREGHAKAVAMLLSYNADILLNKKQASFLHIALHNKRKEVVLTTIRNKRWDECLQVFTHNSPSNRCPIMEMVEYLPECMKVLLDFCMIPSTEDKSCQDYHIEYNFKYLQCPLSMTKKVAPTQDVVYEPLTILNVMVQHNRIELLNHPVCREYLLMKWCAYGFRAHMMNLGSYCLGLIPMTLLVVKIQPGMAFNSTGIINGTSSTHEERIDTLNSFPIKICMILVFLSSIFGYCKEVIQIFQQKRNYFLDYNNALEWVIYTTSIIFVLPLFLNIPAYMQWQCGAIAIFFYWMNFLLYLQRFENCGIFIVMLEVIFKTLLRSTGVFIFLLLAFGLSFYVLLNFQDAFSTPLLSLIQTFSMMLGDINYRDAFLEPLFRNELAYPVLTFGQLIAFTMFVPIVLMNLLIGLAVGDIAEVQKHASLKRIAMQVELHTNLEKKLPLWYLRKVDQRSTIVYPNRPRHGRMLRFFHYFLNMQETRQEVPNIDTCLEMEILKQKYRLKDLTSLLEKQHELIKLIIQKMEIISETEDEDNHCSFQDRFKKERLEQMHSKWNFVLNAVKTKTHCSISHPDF

[5] = target: Transient receptor potential cation channel subfamily A member 1 (Rattus norvegicus) (UniProt Q6RI86); assay: Agonist activity at full length rat TRPA1 transfected in HEK293F cells assessed as increase in Ca2+ influx by FLIPR calcium assay relative to MO; conditions: filed as agonist
Transient receptor potential cation channel subfamily A member 1 (Rattus norvegicus), sequence (Q6RI86 whole entry): as the sequence (Q6RI86 whole entry) above

[6] = target: T3, Transient receptor potential cation channel subfamily A member 1; assay: Agonist activity at full length rat TRPA1 transfected in HEK293F cells assessed as increase in Ca2+ influx by FLIPR calcium assay
[7] = target: T1, Transient receptor potential cation channel subfamily A member 1; assay: Agonist activity at full length human TRPA1 transfected in HEK293F cells assessed as increase in Ca2+ influx by FLIPR calcium assay
[8] = target: T1, Transient receptor potential cation channel subfamily A member 1; assay: Agonist activity at full length human TRPA1 transfected in HEK293F cells assessed as increase in Ca2+ influx by FLIPR calcium assay relative to MO; conditions: filed as agonist
[9] = target: T2, Transient receptor potential cation channel subfamily A member 1; assay: Agonist activity at rhesus monkey TRPA1 transfected in HEK293F cells assessed as increase in Ca2+ influx by FLIPR calcium assay
[10] = target: T5, Transient receptor potential cation channel subfamily A member 1 (Macaca mulatta) (UniProt A0A1D5QMT1); assay: Agonist activity at rhesus monkey TRPA1 transfected in HEK293F cells assessed as increase in Ca2+ influx by FLIPR calcium assay relative to MO; conditions: filed as agonist
T5 sequence (A0A1D5QMT1 as listed by the source): as the sequence (A0A1D5QMT1 whole entry) above

[11] = target: T4, Transient receptor potential cation channel subfamily A member 1; assay: Agonist activity at full length mouse TRPA1 transfected in HEK293F cells assessed as increase in Ca2+ influx by FLIPR calcium assay
[12] = target: Transient receptor potential cation channel subfamily A member 1 (Mus musculus) (UniProt Q8BLA8); assay: Agonist activity at full length mouse TRPA1 transfected in HEK293F cells assessed as increase in Ca2+ influx by FLIPR calcium assay relative to control; conditions: filed as agonist
Transient receptor potential cation channel subfamily A member 1 (Mus musculus), sequence (Q8BLA8 whole entry): as the sequence (Q8BLA8 whole entry) above

[13] = target: T2, Transient receptor potential cation channel subfamily A member 1; assay: Activation of full length rhesus monkey TRPA1 transfected in HEK293F cells assessed as 1 mM of MO-induced current Blockade at -60 mV by whole-cell recording analysis
[14] = target: T2, Transient receptor potential cation channel subfamily A member 1; assay: Activation of full length rhesus monkey TRPA1 transfected in HEK293F cells assessed as 120 uM of MO-induced current Blockade at -60 mV by whole-cell recording analysis
[15] = target: T1, Transient receptor potential cation channel subfamily A member 1; assay: Antagonist activity at full length human TRPA1 transfected in HEK293F cells assessed as increase in Ca2+ influx by FLIPR calcium assay; conditions: filed as antagonist
[16] = target: T5, Transient receptor potential cation channel subfamily A member 1 (Macaca mulatta); assay: Antagonist activity at rhesus monkey TRPA1 transfected in HEK293F cells assessed as increase in Ca2+ influx by FLIPR calcium assay; conditions: filed as antagonist
[17] = target: Transient receptor potential cation channel subfamily A member 1 (Rattus norvegicus) (UniProt Q6RI86); assay: Agonist activity at full length rat TRPA1 transfected in HEK293F cells assessed as blockade of MO-induced TRPA1 channel activation by measuring Ca2+ influx in presence of 30 uM MO by FLIPR calcium assay; conditions: filed as agonist
[18] = target: Transient receptor potential cation channel subfamily A member 1 (Mus musculus) (UniProt Q8BLA8); assay: Agonist activity at full length mouse TRPA1 transfected in HEK293F cells assessed as blockade of MO-induced TRPA1 channel activation by measuring Ca2+ influx in presence of 30 uM MO by FLIPR calcium assay; conditions: filed as agonist
[19] = target: T1, Transient receptor potential cation channel subfamily A member 1; assay: Agonist activity at full length human TRPA1 transfected in HEK293F cells assessed as increase in Ca2+ influx in presence of 30 to 1000 uM MO by FLIPR calcium assay

Compound	IC50 [1] [µM]	IC50 [2] [µM]	IC50 [3] [µM]	IC50 [4] [µM]	Emax [5] [%]	EC50 [6] [µM]	EC50 [7] [µM]	Emax [8] [%]	EC50 [9] [µM]	Emax [10] [%]	EC50 [11] [µM]	Emax [12] [%]	IC50 [13] [µM]	IC50 [14] [µM]	Activity [15]	Activity [16]	Activity [17]	Activity [18]	Activity [19]
CC(C)c1ccc(NC(=O)Cn2cnc3c2c(=O)n(C)c(=O)n3C)cc1	7.4	7.3	7.6	6.8	–	–	–	–	–	–	–	–	–	–	–	–	–	–	–
O=C/C=C/c1ccccc1	–	–	–	–	89	5.4	12.5	81	23.9	84	3.4	71	–	–	–	–	–	–	–
CCCCC/C=C/C=C1/C(=O)C=C[C@@H]1C/C=C\CCCC(=O)O	–	–	–	–	70	19.9	40.4	75	> 100	–	56.4	65	–	–	–	–	–	–	–
CCCCCC(O)/C=C/C=O (configuration not stated) [4-HYDROXYNON-2-ENAL]	–	–	–	–	76	6	9.9	80	> 100	–	6.6	72	–	–	–	–	–	–	–
CCC(=N\O)/C(C)=C/c1ccc(F)cc1 [A-079]	–	0.6	0.33	0.75	–	–	–	–	–	–	–	–	1.63	0.6	–	–	–	–	–
CC(=C\c1ccc(Cl)cc1)/C(C)=N/O [AP18 5]	9.1	56.4	39.9	33	–	–	–	–	–	–	–	–	–	–	–	–	–	–	–
Cn1c(=O)c2c(ncn2C)n(C)c1=O [CAFFEINE]	988	> 1000	–	–	44	95.9	–	–	–	–	61.8	52	–	–	Active	Active	Active	Active	–
CC1CCC(C(C)C)C(O)C1 (configuration not stated) [MENTHOL]	> 1000	> 1000	511	951	41	7.1	278	80	> 300	–	5.2	40	–	–	–	–	–	–	inactive
CC(C)=CCC/C(C)=C/CC/C(C)=C/CSc1ccccc1C(=O)O [SALIRASIB]	–	–	–	–	89	102	4.9	106	167	112	85.5	105	–	–	–	–	–	–	–
NC(=O)c1cccc(-c2cccc(OC(=O)NC3CCCCC3)c2)c1 [URB-597]	–	–	–	–	72	129	7.5	85	> 100	–	74.4	77	–	–	–	–	–	–	–
